Source: US6291657A (priority 1993, dated 2001)

Tests used:
[1] = test system: cholera toxin binding sites on H9 cells; assay type: cell-based, human
[2] = test system: oligosaccharide biosynthesis in HL-60 cells; assay: Glycopeptide analysis by Con A-SEPHAROSE chromatography, HL-60 cells; assay type: cell-based, human
HL-60 cells = assay: Cytotoxicity in the dose range tested; assay type: cell-based, human
[3] = target: UDP-glucose:N-acylsphingosine glucosyltransferase; assay: Inhibition of UDP-glucose:N-acylsphingosine glucosyltransferase; assay type: biochemical, rat brain, mouse macrophage (WEHI-3B); conditions: rat brain or mouse macrophage homogenates; read-out: IC50
WEHI-3B cell lysosomes = assay: Transmission electron microscopy of lysosomes of CBE treated WEHI-3B cells; assay type: cell-based, murine; conditions: transmission electron microscopy (FIG. 6)
[4] = test system: oligosaccharide biosynthesis in BW5147 cells; assay: Glycopeptide analysis by Con A-SEPHAROSE chromatography, BW5147 cells; assay type: cell-based, murine
[5] = test system: N-linked oligosaccharide processing of gp120 in CHO cells (α-glucosidases I and II); assay: Endo H sensitivity of gp120 expressed in CHO cells (N-linked oligosaccharide processing); assay type: cell-based, Chinese hamster
Experimental: The arrows indicate the molecular weight of the untreated gp120 (120 kDa) and post endo H digestion (60 kDa). An additional band of low molecular weight (approximately 60 kDa) was present in some lanes and is a non-specific protein precipitated by the solid phase matrix.
The culture of CHO cells expressing soluble recombinant gp120 (from Dr. P. Stevens, MRC AIDS Directed Programme Reagent Project) and the radiolabelling of these cells was carried out by conventional procedure as described by Karlsson et al., J. Biol. Chem. 268, 570-576 (1993). Briefly, CHO cells were harvested mechanically, washed three times with phosphate buffered saline, 0.1M pH 7.2 (PBS) and resuspended in methionine- and cysteine-free RPMI-1640 medium (ICN-Flow Laboratories, High Wycombe, Bucks, U.K.) supplemented with 1% dialysed FCS. Cells (10^7 /ml) were preincubated in the presence or absence of NB-DNJ or NB-DGJ for 1 hr prior to the addition of 100 μCi/ml Tran^35 S-label (ICN-Flow) for 4 hr. The supernatants were collected and concentrated tenfold using a 30 kDa cut-off membrane (Amicon, Danvers, Mass., U.S.A.).
Immunoprecipitations were performed by conventional procedure as described by Karlsson supra. Supernatants were incubated with the mAb ABT 1001 monoclonal antibody (American Biotechnologies Inc., Cambridge, Mass., U.S.A.) at 0.5 μg/100 μl of supernatant for 30 min. at room temperature followed by sheep anti-mouse IgG1-coated magnetic beads (Dynal Ltd., Wirral, Merseyside, U.K., 1.2×10^7 beads per sample) for 1 hr. at 4° C. The beads were washed three times with 2% TRITON® X-100 in PBS and three times with PBS. Gp120 was eluted in […] reducing SDS-PAGE sample buffer with heating (95° C., 5 min.). Each sample was divided into two equal aliquots and 25 μl of dH2 O added to give a final volume of 50 μl. To one half of each sample 2 μl of endoglycosidase H (endo H, 1 unit/ml, Boehringer Mannheim Ltd., Lewes, Sussex, U.K.) was added and the other half left untreated. […]

[6] = test system: glycolipid and phospholipid species in HL-60 cells; assay: 2D-TLC analysis of total HL-60 lipids labelled with [14C]-palmitic acid; assay type: cell-based, human; conditions: 2D-TLC (FIG. 2)
Experimental: 2D-TLC separation was made of total HL-60 lipids labelled with [^14 C]-palmitic acid. Cells were treated with either 0.5 mM NB-DNJ or NB-DGJ or untreated (UT). Lipids were assigned as follows (untreated cells, lefthand panel, FIG. 2A): 1, gangliosides; 2, lysophospatidylcholine; 3, ceramide phosphorylcholine; 4, ceramide phosphorylethanolamine; 5, phospatidylcholine; 6, phosphatidylinositol; 7, phosphatidylethanolamine; 8, phosphatidylglycerol; 9, diglycosylceramide; 10, monoglycosylceramide; 11, cholesterol/fatty acids/neutral lipids; N and N* are unknowns; and 0 is the sample origin. Following NB-DNJ and NB-DGJ treatment (middle and righthand panels, FIGS. 2B and 2C, respectively) species 1 (gangliosides);9 (diglycosylceramide); 10 (monoglycosylceramide) and N* (unknown) were absent. The radiolabelled lipids were visualized by autoradiography.
HL-60 cells were cultured by conventional procedure as previously described by Platt et al., Eur. J. Biochem. 208, 187-193 (1992). HL-60 cells at 5×10^4 cells/ml were cultured in the presence or absence of imino sugars for 24 hr. For labelling, the two dimensional thin layer chromatography (2D-TLC) conventional method of Butters and Hughes was followed [In Vitro 17, 831-838 (1981)]. Briefly, [^14 C]-palmitic acid (56.8 mCi/mmol, ICN/Flow) was added as a sonicated preparation in foetal calf serum (FCS, Techgen, London, U.K., 0.5 μCi/ml) and the cells cultured for a further 3 days maintaining the imino sugars in the medium. The cells were harvested, washed three times with phosphate buffered saline (PBS), extracted in 1 ml chloroform:methanol (2:1 v/v) and separated by 1 dimensional TLC, loading equal counts (1D-TLC, chloroform:methanol:water (65:25:4)). For two dimensional separations the one dimensional separation was performed as described above, the plate dried overnight under vacuum and separated in the second dimension using a solvent of tetrahydrofuran: dimethoxymethane:methanol:water (10:6:4:1). Plates were air dried and exposed to Hyperfilm-MP high performance autoradiography film (Amersham).

## CCCCN1C[C@H](O)[C@@H](O)[C@@H](O)[C@H]1CO [NB-DGJ, N-butyl deoxygalactonojirimycin]
[1]
  cholera toxin binding: reduction of the binding of cholera toxin
[1]; h9 cells, 4320 min
  reduction in cholera toxin binding: approximately 70%
[2]; HL-60
  Total 3H-mannose recovered: 844322 cpm
[2]; HL-60, percentage of radiolabelled glycopeptides eluted with 10 mM methylglucoside
  Bi-antennary: 17.7%
[2]; HL-60, percentage of radiolabelled glycopeptides eluted with 500 mM methylmannoside
  Oligo-mannose & hybrid: 54.2%
[2]; HL-60, percentage of radiolabelled glycopeptides non-bound
  Tetra- & Tri-antennary: 28.1%
[2]; HL-60 and BW5147
  glycopeptide profile by Con A-SEPHAROSE chromatography: unchanged glycopeptide profile
HL-60 cells
  cytotoxicity: non-cytotoxic
[3]
  IC50: 60.9 µM
WEHI-3B cell lysosomes
  glycolipid accumulation in lysosomes: prevented the glycolipid accumulation
[4]
  Total 3H-mannose recovered: 706873 cpm
[4]; percentage of radiolabelled glycopeptides eluted with 10 mM methylglucoside
  Bi-antennary: 7.2%
[4]; percentage of radiolabelled glycopeptides eluted with 500 mM methylmannoside
  Oligo-mannose & hybrid: 52.4%
[4]; percentage of radiolabelled glycopeptides non-bound
  Tetra- & Tri-antennary: 40.4%
[5]; 0.5 mM and 5 mM
  inhibition of α-glucosidases I and II suggested by gp120 endo H sensitivity: not acting as an inhibitor of α-glucosidases I and II
[5]; 0.5 mM or 5 mM (FIG. 7)
  endo H sensitivity of gp120 N-linked glycans: partially sensitive to endo H and was indistinguishable from the untreated gp120 molecules
[6]; HL-60, 0.5 mM
  gangliosides, unknown lipid (N*), mono and dihexaside species following treatment: absent
[6]; HL-60, 500 μM
  depletion of glycolipid species: total depletion of glycolipid species
